{"source": "patent US20230085307A1", "about": "“PYRIDAZINONE COMPOUND AND HERBICIDE” (NISSAN CHEMICAL CORPORATION, priority 2019, published 2023)", "key": {"[1]": {"system": "barnyard grass", "assay": "Test Example 3: herbicidal effect by foliage application, Wagner pot (Table 18, symbol H)", "assay_type": "in vivo, barnyard grass (Echinochloa crus-galli)", "details": "amount of applied herbicide 320 g/ha", "procedure,_shortened": "(§1)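 Plants were sown in alluvial soil held under 0.1–0.5 cm standing water and grown 14 days in a greenhouse at 25–30 °C. An emulsifiable formulation, water-diluted to the set dose, was then sprayed onto the foliage, and effects were scored three weeks later using previously defined criteria.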"}, "[2]": {"system": "Chinese sprangletop", "assay": "Test Example 3: herbicidal effect by foliage application, Wagner pot (Table 18, symbol D)", "assay_type": "in vivo, chinese sprangletop (Leptochloa chinensis)", "details": "amount of applied herbicide 320 g/ha", "procedure,_shortened": "as §1"}, "[3]": {"system": "rice flat sedge", "assay": "Test Example 3: herbicidal effect by foliage application, Wagner pot (Table 18, symbol E)", "assay_type": "in vivo, rice flat sedge (Cyperus iria)", "details": "amount of applied herbicide 320 g/ha", "procedure,_shortened": "as §1"}, "[4]": {"system": "southern crabgrass", "assay": "Test Example 4: herbicidal effect by soil treatment (Table 19, symbol F)", "assay_type": "in vivo, southern crabgrass (Digitaria ciliaris)", "details": "amount of applied herbicide 320 g/ha", "procedure,_shortened": "(§2)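 Scoring uses the grading scale of an earlier test, three weeks post-application. Treatment consists of spraying a diluted emulsion formulation across the surface of sterilized diluvial soil in which seeds are buried near 1.5 cm deep; boxes are kept in a greenhouse between 25° C. and 30° C.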"}, "[5]": {"system": "green foxtail", "assay": "Test Example 4: herbicidal effect by soil treatment (Table 19, symbol G)", "assay_type": "in vivo, green foxtail (Setaria viridis)", "details": "amount of applied herbicide 320 g/ha", "procedure,_shortened": "as §2"}, "[6]": {"system": "barnyard grass", "assay": "Test Example 4: herbicidal effect by soil treatment (Table 19, symbol H)", "assay_type": "in vivo, barnyard grass (Echinochloa crus-galli)", "details": "amount of applied herbicide 320 g/ha", "procedure,_shortened": "as §2"}, "[7]": {"system": "wild oat", "assay": "Test Example 4: herbicidal effect by soil treatment (Table 19, symbol I)", "assay_type": "in vivo, wild oat (Avena fatua)", "details": "amount of applied herbicide 320 g/ha", "text": "(§3) [Test Example 4] Herbicidal Effect Test by Soil Treatment\n(§4) Sterilized diluvial soil was placed in a plastic box having a length of 21 cm, a width of 13 cm, and a depth of 7 cm. The seeds of each of southern crabgrass, green foxtail, barnyard grass, wild oat, blackgrass, Italian ryegrass, windgrass, velvetleaf, redroot pigweed, lambsquarters, chickweed, false cleavers, persian speedwell, corn, soybean, rice, wheat, beet, and rapeseed were sowed in a spot-like manner and covered with the soil having a thickness of about 1.5 cm. Subsequently, the emulsion agent of the compound of the present invention prepared according to Formulation Example 2 was diluted with water so as to achieve a predetermined herbicide amount, and the diluted emulsion agent was uniformly applied to the surface of the soil with a small-sized spray. The plastic box was placed in a greenhouse at 25° C. to 30° C. for growth of the plants. Three weeks after the herbicide application, the effect of the herbicide on each plant was evaluated according to the criteria of Test Example 1."}, "[8]": {"system": "blackgrass", "assay": "Test Example 4: herbicidal effect by soil treatment (Table 19, symbol J)", "assay_type": "in vivo, blackgrass (Alopecurus myosuroides)", "details": "amount of applied herbicide 320 g/ha", "text": "as §3, §4"}, "[9]": {"system": "Italian ryegrass", "assay": "Test Example 4: herbicidal effect by soil treatment (Table 19, symbol K)", "assay_type": "in vivo, Italian ryegrass (Lolium multiflorum)", "details": "amount of applied herbicide 320 g/ha", "text": "as §3, §4"}, "[10]": {"system": "windgrass", "assay": "Test Example 4: herbicidal effect by soil treatment (Table 19, symbol L)", "assay_type": "in vivo, windgrass (Apera spica-venti)", "details": "amount of applied herbicide 320 g/ha", "text": "as §3, §4"}, "[11]": {"system": "velvetleaf", "assay": "Test Example 4: herbicidal effect by soil treatment (Table 19, symbol M)", "assay_type": "in vivo, velvetleaf (Abutilon theophrasti)", "details": "amount of applied herbicide 320 g/ha", "procedure,_shortened": "as §2"}, "[12]": {"system": "redroot pigweed", "assay": "Test Example 4: herbicidal effect by soil treatment (Table 19, symbol N)", "assay_type": "in vivo, redroot pigweed (Amaranthus retroflexus)", "details": "amount of applied herbicide 320 g/ha", "procedure,_shortened": "as §2"}, "[13]": {"system": "lambsquarters", "assay": "Test Example 4: herbicidal effect by soil treatment (Table 19, symbol O)", "assay_type": "in vivo, lambsquarters (Chenopodium album)", "details": "amount of applied herbicide 320 g/ha", "procedure,_shortened": "as §2"}, "[14]": {"system": "chickweed", "assay": "Test Example 4: herbicidal effect by soil treatment (Table 19, symbol P)", "assay_type": "in vivo, common chickweed (Stellaria media)", "details": "amount of applied herbicide 320 g/ha", "text": "as §3, §4"}, "[15]": {"system": "southern crabgrass", "assay": "Test Example 5: herbicidal effect by foliage application, plastic box (Table 20, symbol F)", "assay_type": "in vivo, southern crabgrass (Digitaria ciliaris)", "details": "foliage application, AAH 320 g/ha, evaluated three weeks after application", "procedure,_shortened": "(§5)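 Post-emergence foliar test in sterilized diluvial soil. Compound applied as water-diluted emulsion at a predetermined rate to 14-day-old plants; evaluation at three weeks.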"}, "[16]": {"system": "green foxtail", "assay": "Test Example 5: herbicidal effect by foliage application, plastic box (Table 20, symbol G)", "assay_type": "in vivo, green foxtail (Setaria viridis)", "details": "foliage application, AAH 320 g/ha, evaluated three weeks after application", "procedure,_shortened": "as §5"}, "[17]": {"system": "barnyard grass", "assay": "Test Example 5: herbicidal effect by foliage application, plastic box (Table 20, symbol H)", "assay_type": "in vivo, barnyard grass (Echinochloa crus-galli)", "details": "foliage application, AAH 320 g/ha, evaluated three weeks after application", "procedure,_shortened": "as §5"}, "[18]": {"system": "wild oat", "assay": "Test Example 5: herbicidal effect by foliage application, plastic box (Table 20, symbol I)", "assay_type": "in vivo, wild oat (Avena fatua)", "details": "foliage application, AAH 320 g/ha, evaluated three weeks after application", "procedure,_shortened": "as §5"}, "[19]": {"system": "Italian ryegrass", "assay": "Test Example 5: herbicidal effect by foliage application, plastic box (Table 20, symbol K)", "assay_type": "in vivo, Italian ryegrass (Lolium multiflorum)", "details": "foliage application, AAH 320 g/ha, evaluated three weeks after application", "procedure,_shortened": "as §5"}, "[20]": {"system": "windgrass", "assay": "Test Example 5: herbicidal effect by foliage application, plastic box (Table 20, symbol L)", "assay_type": "in vivo, windgrass (Apera spica-venti)", "details": "foliage application, AAH 320 g/ha, evaluated three weeks after application", "procedure,_shortened": "as §5"}, "[21]": {"system": "velvetleaf", "assay": "Test Example 5: herbicidal effect by foliage application, plastic box (Table 20, symbol M)", "assay_type": "in vivo, velvetleaf (Abutilon theophrasti)", "details": "foliage application, AAH 320 g/ha, evaluated three weeks after application", "procedure,_shortened": "as §5"}, "[22]": {"system": "redroot pigweed", "assay": "Test Example 5: herbicidal effect by foliage application, plastic box (Table 20, symbol N)", "assay_type": "in vivo, redroot pigweed (Amaranthus retroflexus)", "details": "foliage application, AAH 320 g/ha, evaluated three weeks after application", "procedure,_shortened": "as §5"}, "[23]": {"system": "lambsquarters", "assay": "Test Example 5: herbicidal effect by foliage application, plastic box (Table 20, symbol O)", "assay_type": "in vivo, lambsquarters (Chenopodium album)", "details": "foliage application, AAH 320 g/ha, evaluated three weeks after application", "procedure,_shortened": "as §5"}, "[24]": {"system": "chickweed", "assay": "Test Example 5: herbicidal effect by foliage application, plastic box (Table 20, symbol P)", "assay_type": "in vivo, common chickweed (Stellaria media)", "details": "foliage application, AAH 320 g/ha, evaluated three weeks after application", "procedure,_shortened": "as §5"}, "[25]": {"system": "persian speedwell", "assay": "Test Example 5: herbicidal effect by foliage application, plastic box (Table 20, symbol R)", "assay_type": "in vivo, Persian speedwell (Veronica persica)", "details": "foliage application, AAH 320 g/ha, evaluated three weeks after application", "procedure,_shortened": "as §5"}}, "data": [{"smiles": "CCCC(=O)Oc1c(C)nn(C)c(=O)c1-c1c(-c2cccc(OCc3ccccc3)c2)sc2ccc(F)cc12", "note": "[2-268]", "values": [{"measurement": "herbicidal effect on H: barnyard grass", "setting": "[1]", "value": "4 (Herbicidal rate of 70% or more and less than 90%)"}, {"measurement": "herbicidal effect on D: Chinese sprangletop", "setting": "[2]", "value": "3 (Herbicidal rate of 40% or more and less than 70%)"}, {"measurement": "herbicidal effect on E: rice flat sedge", "setting": "[3]", "value": "3 (Herbicidal rate of 40% or more and less than 70%)"}, {"measurement": "herbicidal effect on F: southern crabgrass", "setting": "[4]", "value": "0 (Herbicidal rate of 5% or less (almost no effect))"}, {"measurement": "herbicidal effect on G: green foxtail", "setting": "[5]", "value": "0 (Herbicidal rate of 5% or less (almost no effect))"}, {"measurement": "herbicidal effect on H: barnyard grass", "setting": "[6]", "value": "0 (Herbicidal rate of 5% or less (almost no effect))"}, {"measurement": "herbicidal effect on I: wild oat", "setting": "[7]", "value": "0 (Herbicidal rate of 5% or less (almost no effect))"}, {"measurement": "herbicidal effect on J: blackgrass", "setting": "[8]", "value": "0 (Herbicidal rate of 5% or less (almost no effect))"}, {"measurement": "herbicidal effect on K: Italian ryegrass", "setting": "[9]", "value": "3 (Herbicidal rate of 40% or more and less than 70%)"}, {"measurement": "herbicidal effect on L: windgrass", "setting": "[10]", "value": "0 (Herbicidal rate of 5% or less (almost no effect))"}, {"measurement": "herbicidal effect on M: velvetleaf", "setting": "[11]", "value": "0 (Herbicidal rate of 5% or less (almost no effect))"}, {"measurement": "herbicidal effect on N: redroot pigweed", "setting": "[12]", "value": "0 (Herbicidal rate of 5% or less (almost no effect))"}, {"measurement": "herbicidal effect on O: lambsquarters", "setting": "[13]", "value": "0 (Herbicidal rate of 5% or less (almost no effect))"}, {"measurement": "herbicidal effect on P: chickweed", "setting": "[14]", "value": "0 (Herbicidal rate of 5% or less (almost no effect))"}, {"measurement": "F: southern crabgrass, herbicidal effect (criteria 0-5)", "setting": "[15]", "value": "1 (Herbicidal rate of 5% or more and less than 20%)"}, {"measurement": "G: green foxtail, herbicidal effect (criteria 0-5)", "setting": "[16]", "value": "4 (Herbicidal rate of 70% or more and less than 90%)"}, {"measurement": "H: barnyard grass, herbicidal effect (criteria 0-5)", "setting": "[17]", "value": "4 (Herbicidal rate of 70% or more and less than 90%)"}, {"measurement": "I: wild oat, herbicidal effect (criteria 0-5)", "setting": "[18]", "value": "0 (Herbicidal rate of 5% or less (almost no effect))"}, {"measurement": "K: Italian ryegrass, herbicidal effect (criteria 0-5)", "setting": "[19]", "value": "2 (Herbicidal rate of 20% or more and less than 40%)"}, {"measurement": "L: windgrass, herbicidal effect (criteria 0-5)", "setting": "[20]", "value": "1 (Herbicidal rate of 5% or more and less than 20%)"}, {"measurement": "M: velvetleaf, herbicidal effect (criteria 0-5)", "setting": "[21]", "value": "1 (Herbicidal rate of 5% or more and less than 20%)"}, {"measurement": "N: redroot pigweed, herbicidal effect (criteria 0-5)", "setting": "[22]", "value": "3 (Herbicidal rate of 40% or more and less than 70%)"}, {"measurement": "O: lambsquarters, herbicidal effect (criteria 0-5)", "setting": "[23]", "value": "3 (Herbicidal rate of 40% or more and less than 70%)"}, {"measurement": "P: chickweed, herbicidal effect (criteria 0-5)", "setting": "[24]", "value": "5 (Herbicidal rate of 90% or more (almost completely withered))"}, {"measurement": "R: persian speedwell, herbicidal effect (criteria 0-5)", "setting": "[25]", "value": "4 (Herbicidal rate of 70% or more and less than 90%)"}]}]}
